Test results as given in US20230086702A1, “SUBSTITUTED 2-AMINO-PYRAZOLYL-[1,2,4]TRIAZOLO[1,5A]PYRIDINE DERIVATIVES AND USE THEREOF” (The Johns Hopkins University, priority 2019, published 2023).

Legend:
DLK = target: T1, DLK (Homo sapiens, UniProt Q12852); assay: DLK biochemical assay (TR-FRET, MKK7 phosphorylation); details: DLK catalytic domain, MKK7 substrate, 60 μM ATP
T1 construct: 10 nM DLK, catalytic domain, Carna Biosiences; purchased Carna Biosciences ('Carna Biosiences' [sic])
T1 sequence (Q12852 125-366 limits assumed): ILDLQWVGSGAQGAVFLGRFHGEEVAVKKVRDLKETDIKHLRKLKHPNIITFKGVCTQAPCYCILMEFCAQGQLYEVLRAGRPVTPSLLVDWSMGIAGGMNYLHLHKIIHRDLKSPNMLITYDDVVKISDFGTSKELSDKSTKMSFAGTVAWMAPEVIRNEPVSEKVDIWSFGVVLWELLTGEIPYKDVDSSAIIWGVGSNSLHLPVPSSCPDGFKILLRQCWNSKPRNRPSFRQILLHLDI
Method in brief: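 TR-FRET read-out (ratio of 665 nm acceptor to Eu donor channel) tracks MKK7 T275/S277 phosphorylation by DLK, using Eu-labelled anti-phospho-MKK7 and XL665-labelled anti-His on His-MKK7. Reactions were stopped and detected in pH 7.5 Tris buffer containing 100 mM EDTA, 100 mM NaCl, 200 mM KF and 0.01% Tween 20.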

LZK = target: T2, LZK (Homo sapiens, UniProt O43283); assay: LZK biochemical assay (TR-FRET, MKK7 phosphorylation); details: LZK catalytic domain, MKK7 substrate, 15 μM ATP
T2 construct: 10 nM LZK, catalytic domain, Carna Biosiences in assay buffer; purchased Carna Biosciences ('Carna Biosiences' [sic])
T2 sequence (O43283 168-409 limits assumed): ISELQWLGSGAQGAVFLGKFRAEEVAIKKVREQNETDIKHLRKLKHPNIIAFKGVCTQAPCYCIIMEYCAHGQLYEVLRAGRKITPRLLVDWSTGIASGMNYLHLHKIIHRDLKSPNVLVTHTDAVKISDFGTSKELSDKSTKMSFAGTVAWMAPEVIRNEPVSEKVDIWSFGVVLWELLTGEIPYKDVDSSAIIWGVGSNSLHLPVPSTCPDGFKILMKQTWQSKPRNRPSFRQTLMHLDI

[1] = system: retinal ganglion cells (RGCs); assay: Optic nerve crush, RGC survival (RBPMS staining); type: in vivo, C57B6/J animals; details: intravitreal injection of 8 mM, second injection 4 days later, two weeks after optic nerve crush, vs vehicle (FIG. 3)
Description: Inhibition of DLK and LZK can reduce the neuronal injury response and result in the protection of various neuronal populations from degeneration. Cells can be immunostained for p-cJun S73 (p-JUN), which is an indicator of DLK pathway activation. Accordingly, decreased p-JUN staining compared to a control can be indicative of inhibition of DLK pathway activation. RBPMS can be used to mark retinal ganglion cells (RGCs) and show changes in cell survival (e.g., increased RBPMS staining compared to a control can indicate increased cell survival).
Unilateral optic nerve crush was performed on C57B6/J animals between 6 and 8 weeks of age, followed by intravitreal injection of 8 mM of I-106. A second injection was performed 4 days later. Two weeks after optic nerve crush, animals were sacrificed and retinas were immunostained for RBPMS. Confocal microscopy was used to image RGCs and ImageJ was used to quantify the density of RGCs.
Mice were intravitreally injected with 1 μL of vehicle (DMSO), 100 mM I-81, or 300 mM I-81 immediately following optic nerve crush injury. Retinas were extracted 1 month later and immunofluorescently labelled with anti-RBPMS to mark RGCs, anti-phosphorylated JUN (P-JUN) to examine DLK/JNK pathway induction, and Tuj1 to visualize axons (see FIG. 9).

retina = assay: Retinal structure and function after intravitreal injection (optical coherence tomography, electroretinographs); type: in vivo, mice; details: 7 days following intravitreal injection of 10 mM, vs vehicle (DMSO) (FIG. 10, 11A, 11B)
Experimental: Optical coherence tomography images of mice 7 days following intravitreal injections of either vehicle (DMSO) or 10 mM I-81 were obtained (FIG. 10). Retinal electroretinographs were also acquired (FIGS. 11A and 11B).

hRGCs = assay: hRGC survival under rotenone or CCCP (Cell Titer Glo); type: cell-based, human; details: 1 uM rotenone or 30 uM CCCP, increasing doses, 72 hours (FIG. 4)
Experimental: (§1) H7 or H9 human embryonic stem cells or patient-derived induced pluripotent stem cells were modified to express mouse Thy1.2 and tdTomato from the BRN3B locus (Sluch et al., 2017). To produce RGCs, stem cells were dissociated to single cells and plated on Matrigel (Corning, USA) coated plates at a density of 52.6 K/cm^2 in mTeSR1 with […] blebbistatin, a time point designated as day minus 1 (d-1). One day after plating, mTeSR1 was completely exchanged for N2B27 media [1:1 mix of DMEM/F12 and Neurobasal with GlutaMAX Supplement, antibiotic-antimycotic, 1% N2 Supplement, and 2% B27 Supplement (all from ThermoFisher Scientific)] to start differentiation; this day was designated as day 0 (d0). Small molecules were added to the cells on day 1 (dl), 24 hours after d0. Small molecule addition was done in fresh N2B27 media. Cells were fed with a full exchange of N2B27 media every other day unless a small molecule was to be removed or added on that day of differentiation, requiring daily feeding. […] After 35 days in culture, when abundant RGCs have appeared (indicated by red fluorescence), cultures were dissociated into a single cell suspension. […]
hRGCs were challenged with (A) 1 uM rotenone or (B) 30 uM CCCP in the presence of increasing doses of I-84 for 72 hours. Cell survival was quantified using Cell Titer Glo, an ATP-based luminescent assay.

[2] = system: human stem cell derived RGCs; assay: Protection of human stem cell derived RGCs in models of mitochondrial injury (FIG. 4); type: cell-based
Experimental: as §1, with “d0.” for “d0. Small molecule addition was done in fresh N2B27 media. Cells were fed with a full exchange of N2B27 media every other day unless a small molecule was to be removed or added on that day of differentiation, requiring daily feeding.”
In order to test compounds, RGCs were plated in 96- or 384-well Nunclon or Falcon dishes. […] For both sets of RGCs, increasing doses of the kinase inhibitors was added at the time of injury and survival was quantitated after 72 hours using CellTiter-Glo (Promega, Madison) and measuring relative light units (RLU) or by staining cultures with conventional viability dyes (i.e. ethidium homodimer exclusion, calcein AM uptake) and measuring survival by automated image analysis.

| Compound | IC50 (DLK) | IC50 (LZK) | survival of RGCs (density of RBPMS) [1] | structural or functional toxicity to the retina (retina) | cell survival of hRGCs (hRGCs) | protection of human stem cell derived RGCs [2] |
| --- | --- | --- | --- | --- | --- | --- |
| CC[C@H](C)NC(=O)c1cc(-c2cnn([C@H](c3ccc(C(F)(F)F)nc3)C(C)C)c2)cc2nc(N)nn12 (single isomer, unassigned) [Example I-106] | 1 nM | 1.6 nM | promoted survival of RGCs following optic nerve crush |  |  |  |
| CC[C@H](C)NC(=O)c1cc(-c2cnn([C@H](c3ccc(C(F)(F)F)nc3)C3CCN(C(=O)OC(C)(C)C)CC3)c2)cn2nc(N)nc12 [Example I-81, tert-Butyl 4-{(4-{2-amino-8-[(2S)-butan-2-ylcarbamoyl][1,2,4]triazolo[1,5-a]pyridin-6-yl}-1H-pyrazol-1-yl)[6-(trifluoromethyl)pyridin-3-yl]methyl}piperidine-1-carboxylate] | 6.6 nM | 8.5 nM |  | did not induce structural or functional toxicity to the retina |  |  |
| CC[C@H](C)NC(=O)c1cc(-c2cnn([C@H](c3ccc(C(F)(F)F)nc3)C3CCN(C(C)=O)CC3)c2)cn2nc(N)nc12 [Example I-84, 6-(1-{(1-Acetylpiperidin-4-yl)[6-(trifluoromethyl)pyridin-3-yl]methyl}-1H-pyrazol-4-yl)-2-amino-N-[(2S)-butan-2-yl][1,2,4]triazolo[1,5-a]pyridine-8-carboxamide] | 0.5 nM | 1.2 nM |  |  | protective to human stem cell derived RGCs in models of mitochondrial injury | protective |
| Nc1nc2c(C(=O)NC3CCC3)cc(-c3cnn(Cc4ccc(F)cc4)c3)cn2n1 [Example I-132, 2-Amino-N-cyclobutyl-6-{1-[(4-fluorophenyl)methyl]-1H-pyrazol-4-yl}[1,2,4]triazolo[1,5-a]pyridine-8-carboxamide] | 85 nM | 240 nM |  |  |  |  |
| tert-Butyl 4-{(4-{2-amino-8-[(2S)-butan-2-ylcarbamoyl][1,2,4]triazolo[1,5-a]pyridin-6-yl}-1H-pyrazol-1-yl)[6-(trifluoromethyl)pyridin-3-yl]methyl}piperidine-1-carboxylate [Example I-80] | 45 nM | 40 nM |  |  |  |  |
